Results published in US20250134863A1, “MEDICAL AGENT FOR TREATING OR SUPPRESSING PROGRESSION OF AMYOTROPHIC LATERAL SCLEROSIS” (MITSUBISHI TANABE PHARMA CORPORATION, priority 2022, published 2025).

Experiments:
[1] = test system: ALS patients; test: Post-hoc statistical analysis 2: ALSFRS-R total score from baseline to cycle 12 (16, 17 and 19 trials), MMRM; format: in vivo, human
Text: After a 12-week observation period, patients whose ALSFRS-R total score decreased by 1 to 4 points during that period were considered eligible for the trial. In the 16 trial, eligible patients were randomly divided into an edaravone treatment group and a placebo administration group, and patients in each group received administration for 24 weeks (cycles 1 to 6). After completing the 24-week double-blind portion of the 16 trial, patients who received edaravone (E) were randomly assigned to the 17 trial, and during a 24-week double-blind extension period (cycles 7 to 12), edaravone treatment (EE group) or placebo administration (EP group) was performed. On the other hand, all patients from the placebo (P) administration group received edaravone treatment (PE group). All patients received open-label edaravone treatment for the next 12 weeks (cycles 13 to 15).
Edaravone was administered at a dose of 60 mg by intravenous infusion over 60 minutes, once daily. The infusion was given for 14 days in the first treatment cycle, and for 10 days out of the 14-day treatment period in all subsequent cycles. A 14-day drug holiday period was provided after each treatment cycle.
Similar to the 16 trial, after a 12-week observation period, patients in the 19 trial were randomly divided into an edaravone treatment group and a placebo administration group, and patients in each group received administration for 24 weeks (cycles 1 to 6). In the 19 trial, after the double-blind treatment period, all patients received open-label edaravone treatment for an additional 24 weeks (cycles 7 to 12). Therefore, the 19 trial included an EE group and a PE group.
In order to characterize the uric acid level and ALSFRS-R total score profiles at cycle 12, efficacy was analyzed in randomized ALS patients at the start of cycle 7 and randomized ALS patients who received the medical agent at least once after the start of cycle 7.
Descriptive statistics (number of subjects, mean, standard deviation, minimum, maximum) were used to summarize the changes in uric acid levels (mg/dL) and ALSFRS-R total scores from baseline to cycle 12 for the entire population and for the Edaravone treatment group as a subgroup defined by the median baseline uric acid level (4.8 mg/dL). The median baseline uric acid level for all patients (4.8 mg/dL) was derived using the entire edaravone population, including the EE, PE, and EP groups in the 16 trial, the 17 trial, and the 19 trial.
The least squares (LS) mean difference of the EE and EP treatment groups compared to the PE treatment group was estimated using a mixed-effects model for repeated measures (MMRM). By using the MMRM, the LS mean, standard error, 95% confidence interval (CI), and p-value for each group are calculated. The MMRM includes treatment group, time point, interaction between treatment group and time point, age (<65 years or >65 years), initial symptoms (bulbar or limb symptoms), ALS diagnostic criteria (ALS definite, ALS highly possible, ALS highly possible with positive test findings, ALS possible), change in ALSFRS-R total score during the 12-week observation period (−1/−2 or −3/−4), and use of riluzole (Yes or No) as fixed effects, and includes baseline of the ALSFRS-R total score or uric acid baseline (mg/dL) of the median subgroup as covariates. A compound symmetric covariance matrix was applied to model covariance of within-patient scores, and the Kenward-Roger approximation was applied to estimate a degrees of freedom of the criteria. The statistical significance level was set at a two-sided level of 0.05.

[2] = test system: ALS patients; conditions: 18 trial; ALS severity of grade 3; very small number of cases; cited from earlier work
[3] = Subgroup with uric acid level baseline <4.8 mg/dL, EE group
[4] = Subgroup with uric acid level baseline <4.8 mg/dL, EP group
[5] = Subgroup with uric acid level baseline <4.8 mg/dL, PE group
[6] = Subgroup with uric acid level baseline ≥4.8 mg/dL, EE group
[7] = Subgroup with uric acid level baseline ≥4.8 mg/dL, EP group
[8] = Subgroup with uric acid level baseline ≥4.8 mg/dL, PE group

Compound: CC1=NN(c2ccccc2)C(=O)C1 [edaravone, 3-methyl-1-phenyl-2-pyrazolin-5-one]
- ALSFRS-R total score change from BL to cycle 12, Mean (SD) ([1]; Overall, EE group): −8.1 points
- ALSFRS-R total score change from BL to cycle 12, Mean (SD) ([1]; Overall, EE group, listed as Edaravone): −8.1 (5.97) points
- ALSFRS-R total score change from BL to cycle 12, LS Mean (SE) ([1]; Overall, EP group): −8.7 (1.28) points
- ALSFRS-R total score change from BL to cycle 12, Mean (SD) ([1]; Overall, EP group): −9.6 (6.88) points
- ALSFRS-R total score at Cycle 12, Mean (SD) ([1]; Overall, Edaravone-Edaravone (EE) group): 33.3 (7.66) points
- ALSFRS-R total score at Cycle 12, Mean (SD) ([1]; Overall, Edaravone-Placebo (EP) group): 31.3 (7.74) points
- ALSFRS-R total score change from BL to cycle 12, LS Mean (SE) ([1]; Overall, PE group): −9.9 (1.12) points
- ALSFRS-R total score change from BL to cycle 12, Mean (SD) ([1]; Overall, PE group): −10.3 (7.70) points
- ALSFRS-R total score at Cycle 12, Mean (SD) ([1]; Overall, Placebo-Edaravone (PE) group): 31.2 (8.64) points
- ALSFRS-R total score at Cycle 12, Mean (SD) [1, 3]: 32.6 (8.48) points
- ALSFRS-R total score change from BL to cycle 12, LS Mean (SE) [1, 3]: −7.0 (1.38) points
- ALSFRS-R total score change from BL to cycle 12, Mean (SD) [1, 3]: −8.7 points
- ALSFRS-R total score change from BL to cycle 12, Mean (SD) ([1]; Subgroup with uric acid level baseline <4.8 mg/dL, EE group, listed as Edaravone): −8.7 (6.95) points
- ALSFRS-R total score at Cycle 12, Mean (SD) [1, 4]: 31.5 (7.66) points
- ALSFRS-R total score change from BL to cycle 12, LS Mean (SE) [1, 4]: −7.8 (1.78) points
- ALSFRS-R total score change from BL to cycle 12, Mean (SD) [1, 4]: −9.7 (7.17) points
- ALSFRS-R total score at Cycle 12, Mean (SD) [1, 5]: 31.6 (7.99) points
- ALSFRS-R total score change from BL to cycle 12, LS Mean (SE) [1, 5]: −8.5 (1.37) points
- ALSFRS-R total score change from BL to cycle 12, Mean (SD) [1, 5]: −9.7 (7.30) points
- ALSFRS-R total score at Cycle 12, Mean (SD) [1, 6]: 34.0 (6.65) points
- ALSFRS-R total score change from BL to cycle 12, LS Mean (SE) [1, 6]: −8.1 (0.91) points
- ALSFRS-R total score change from BL to cycle 12, Mean (SD) [1, 6]: −7.4 points
- ALSFRS-R total score change from BL to cycle 12, Mean (SD) ([1]; Subgroup with uric acid level baseline ≥4.8 mg/dL, EE group, listed as Edaravone): −7.4 (4.63) points
- ALSFRS-R total score at Cycle 12, Mean (SD) [1, 7]: 31.1 (7.97) points
- ALSFRS-R total score change from BL to cycle 12, LS Mean (SE) [1, 7]: −10.3 (1.05) points
- ALSFRS-R total score change from BL to cycle 12, Mean (SD) [1, 7]: −9.5 (6.82) points
- ALSFRS-R total score at Cycle 12, Mean (SD) [1, 8]: 30.8 (9.20) points
- ALSFRS-R total score change from BL to cycle 12, LS Mean (SE) [1, 8]: −12.0 (0.77) points
- ALSFRS-R total score change from BL to cycle 12, Mean (SD) [1, 8]: −10.9 (8.03) points
- change in ALSFRS-R total score compared to placebo [2]: no statistically significant difference was observed compared to placebo
